According to patent publication US7101568B2, “Methods and compositions for treating solid tumors” (Guilford Pharmaceuticals, Inc., priority 1999, dated 2006):

Experiments:
[1] = tested on: A549 tumor nodules; experiment: Murine tumor nodule model, A549 tumor volume doubling time; assay type: in vivo, mouse; conditions: A549, 24 mg/kg paclitaxel
Description: Athymic nude Balb/c mice were engrafted with human non-small cell lung cancer cell lines (A549 and H1299, both of which were obtained from the American Type Culture Collection).
(§1) The cells were grown to confluence in DMEM/F12 medium (Mediatech, Herndon, Va.) supplemented with 10% fetal bovine serum (“growth medium”) under antibiotic-free conditions at 37° in a 5% CO2 atmosphere. After growing under standard these tissue culture conditions, the cells were enzymatically detached, enumerated, and the concentration was adjusted as required.
(§2) The cells were mixed 1:1 with Matrigel™ as an enhancer for engraftment, and 2×10^6 cells were injected subcutaneously on the flanks. Tumors were allowed to grow until achieving a volume of approximately 200-400 mm^3, as determined by the formula: Tumor volume=(length)×(width)×(height) The dimensions of the tumor on each test animal were measured directly with calipers.
Various formulations of paclitaxel were administered to the test animals bearing tumors, either systemically or intratumorally. Each animal was weighed at the time of treatment so that dosages could be adjusted to achieve the mg/kg amounts reported. Systemic administration was achieved by injecting the test composition into the intraperitoneal cavity of the test animal. For intraperitoneal (“IP”) injections, the animals received a total injection volume of approximately 1 mL.
Intratumoral administration (“IT”), on the other hand, was accomplished by the following procedure: • (1) injecting a single volume of about 100 μl (0.1 mL) the test composition into the center of the tumor nodule with a 21-25 gauge needle over a time period of about 10-20 seconds; • (2) infusing the volume over about 10-15 seconds, and then leaving the needle in place for an additional time of about 10-20 seconds; and • (3) withdrawing the needle. Following the treatments, all mice were tagged, and the tumors were measured three times weekly with calipers. Test animals were also weighed once weekly.
The tumor volume doubling time was determined from the tumor measurements in all treatment groups.

[2] = tested on: H1299 tumor nodules; experiment: Murine tumor nodule model, H1299 tumor volume doubling time; assay type: in vivo, mouse; conditions: H1299, 24 mg/kg paclitaxel
Description: A murine tumor nodule model, a widely used and accepted model for investigating the efficacy of therapies for solid tumors, was used to establish the utility of sustained release for solid tumors. Athymic nude Balb/c mice were engrafted with human non-small cell lung cancer cell lines (A549 and H1299, both of which were obtained from the American Type Culture Collection).
as §1, §2
Various formulations of paclitaxel were administered to the test animals bearing tumors, either systemically or intratumorally. Each animal was weighed at the time of treatment so that dosages could be adjusted to achieve the mg/kg amounts reported. […]
Intratumoral administration (“IT”), on the other hand, was accomplished by the following procedure: • (1) injecting a single volume of about 100 μl (0.1 mL) the test composition into the center of the tumor nodule with a 21-25 gauge needle over a time period of about 10-20 seconds; • (2) infusing the volume over about 10-15 seconds, and then leaving the needle in place for an additional time of about 10-20 seconds; and • (3) withdrawing the needle. Following the treatments, all mice were tagged, and the tumors were measured three times weekly with calipers. […]
Time-dependent changes in H1299 tumor nodule growth and/or sizes following different treatments were determined. […]

[3] = intratumoral, listed as conventional paclitaxel

## CC(=O)O[C@H]1C(=O)[C@@]2(C)[C@H]([C@H](OC(=O)c3ccccc3)[C@]3(O)C[C@H](OC(=O)[C@H](O)[C@@H](NC(=O)c4ccccc4)c4ccccc4)C(C)=C1C3(C)C)[C@]1(OC(C)=O)CO[C@@H]1C[C@@H]2O [conventionally formulated paclitaxel, paclitaxel]
[1]; intraperitoneal
  tumor volume doubling time: 11.5 ± 2.3 days
[1]; intratumoral
  tumor volume doubling time: 10.2 ± 4.7 days
[1]; [3]
  tumor volume doubling time: 10 days
[2]; intraperitoneal
  tumor volume doubling time: 12 ± 1.9 days
[2]; intratumoral
  tumor volume doubling time: 11.2 ± 1.9 days
[2]; [3]
  tumor volume doubling time: 11 days
